Assay results reported in PubChem BioAssay AID743417 (Broad Institute, 2014).
Records with an inconclusive call do not appear. *1 amine or outer side, *2 acyl side, *3 side chain or, on linkers, in order; H or OH if unused. Where a SMILES comes first, the peptide text is derived from it. Bridges are numbered along the chain shown (N, C = ends). [ ]: non-standard residue; d: D form. ξ: configuration not given here. X1 = CC[C@H](CCC[C@@H](O)[C@@H](C)C(=O)O[C@H](C)[C@@H](C)C/C=C(C)/C(=C\C(=O)[*:1])OC)O[*:2]; NMeξIle = CC[C@H](C)C(NC)C(=O)O; NMeV = CN[C@H](C(=O)O)C(C)C; NMeS = CN[C@@H](CO)C(=O)O

system: Clone20 osteoblast Shn3 3'UTR firefly luciferase, 24 h; assay: Schnurri-3 3'UTR-luciferase signal suppressors – cell-based, Clone20 osteoblasts, luminescence, dry powder, set 2, dose response (AID 743417)

SMILES | AC50
COc1ccc(-n2c(C)cc(C(=O)CSc3nnc(-c4cccs4)o3)c2C)cc1 | 5.03 µM
Nc1nc(N)c2cc(S(=O)(=O)c3ccc4ccccc4c3)ccc2n1 | 3.37 µM
C[C@H]1C[C@@H](C)C(=O)[C@@H]([C@H](O)CC2CC(=O)NC(=O)C2)C1 | 0.307 µM
Cc1cc(CN2CCOCC2)c(O)c(C2(C)CCCCC2)c1 | 32.3 µM
CCOC(=O)c1c(C)[nH]c2c1-c1ccccc1C(=O)C2=O | 0.496 µM
c1ccc2c(-c3[nH]ncc3CNCCCn3ncc4ccccc43)cccc2c1 | 3.25 µM
C=C1C(=O)C23C(O)C1CCC2C12COC3(O)C(O)C1C(C)(C)CCC2O (stereo not given) | 3.3 µM
O=C(CSc1nnc(Cn2nnc3ccccc32)o1)N(Cc1ccc(Cl)cc1)c1ccccc1 | 2.29 µM
O=C(/C=C/Nc1ccccc1Br)c1ccccn1 | 1.8 µM
O=C(NCc1cccnc1)/C(=C/c1ccc(-c2ccc(Cl)cc2)o1)S(=O)(=O)c1ccccc1 | 5.35 µM
CC(C)OC(=O)c1ccc(NCc2cc(O)ccc2O)cc1 | 1.9 µM
COc1cccc(-c2cc(N3CCN(C(=O)c4ccoc4)CC3)n3nc(-c4cccc(Cl)c4)cc3n2)c1 | 6.22 µM
O=[N+]([O-])c1cc2c(c(CSc3nnc(Nc4ccccc4)s3)c1)OCOC2 | 3.62 µM
CCOC(=O)C1CCN(C(=O)c2sc3nc(C)nc(N4CCC(C)CC4)c3c2C)CC1 | 5.26 µM
Cc1cccc(C(C)(C)C)c1OCCN1CCCC1 | 34.2 µM
CC[C@H](C)[C@H]1O[C@]2(CC[C@@H]1C)C[C@@H]1C[C@@H](CC=C(C)[C@@H](O[C@H]3C[C@H](OC)[C@@H](O[C@H]4C[C@H](OC)[C@@H](O)[C@H](C)O4)[C@H](C)O3)[C@@H](C)C=CC=C3CO[C@@H]4[C@H](O)C(C)=C[C@@H](C(=O)O1)[C@]34O)O2 | 6.32 µM
O=C(CN(C(=O)c1ccc(Cl)cc1)C1CCCCC1)Nc1ccc(Cl)c([N+](=O)[O-])c1 | 8.11 µM
CN(C)CC(C(=O)c1ccccc1)c1ccccc1 (stereo not given) | 2.8 µM
CC(C)CC(N)c1csc(NC(=O)c2cc(C(C)(C)C)nn2Cc2ccccc2)n1 (stereo not given) | 4.85 µM
Cc1ccc(OC(=O)CCC(=O)Oc2ccc(C)cc2C)c(C)c1 | 3.51 µM
CC1=NOC(=O)/C1=C\c1ccc(-c2ccccc2Br)o1 | 6.48 µM
COc1ccc(CC2(CO)CCN(CC3=Cc4cc(Cl)ccc4OC3)CC2)cc1 | 1.33 µM
COc1ccc2c(c1OC)C(=O)N1c3ccccc3C(=O)N(c3ccccc3F)C21 (stereo not given) | 11.6 µM
CC(NNC(=S)N1CCN(c2ccccn2)CC1)c1nccc2ccccc12 (stereo not given) | < 0.26 µM
COc1cc2ccnc(Cc3cccc(OC)c3OC)c2cc1OC | 4.64 µM

SMILES | AC50
CC(C)(C)c1ccc(C(O)CCCN2CCC(C(O)(c3ccccc3)c3ccccc3)CC2)cc1 (stereo not given) | 16.7 µM
O=[N+]([O-])c1cc(S(=O)(=O)C(F)(F)F)ccc1Sc1nc2ccccc2s1 | 2.45 µM
COc1ccc(Nc2nc(N3CCCC3)c3ccccc3n2)cc1 | 3.67 µM
CC(=O)O[C@H]1CC[C@@]2(C)C(=CC[C@H]3[C@@H]4CC[C@H](C(C)=O)[C@@]4(C)CC[C@@H]32)C1 | 28.5 µM
CSc1nc(N)nc2c1ncn2CC(=O)N1CCN(Cc2c(C)cc(C)cc2C)CC1 | 0.526 µM
Cn1c(=O)c2c(nc(NCc3ccco3)n2CCc2ccccc2)n(C)c1=O | 2.34 µM
CCOc1ccccc1NC(=O)c1nc(S(=O)(=O)Cc2cccc(C)c2)ncc1Cl | 0.324 µM
CCC(C)c1ccc(S(=O)(=O)N2CCN(C(=O)c3ccc(Cl)c(S(=O)(=O)N4CCOCC4)c3)CC2)cc1 (stereo not given) | 5.32 µM
O=C(NCc1cccc(Cl)c1)c1cc(COc2ccc3ncccc3c2)on1 | 3.05 µM
COc1ccc(C2=Nn3c([n+](C)c4ccccc43)SC2)cc1 | 1.16 µM
Cc1cc(C)c(S(=O)(=O)N2Cc3ccccc3-n3nncc3C2)c(C)c1 | 4.36 µM
Cc1cccc(C)c1NC(=O)CN(C)C(=O)c1cccc(S(=O)(=O)N2CCN(c3ccc(F)cc3)CC2)c1 | 2.2 µM
CCCCC(=O)NC(c1ccc(Cl)cc1Cl)c1ccc2cccnc2c1O (stereo not given) | 0.67 µM
C=CCn1nc([N+](=O)[O-])nc1Sc1cccc2cccnc12 | 10.7 µM
CCOC(=O)c1cccc(NC2c3ccccc3C(=O)N2Cc2ccco2)c1 (stereo not given) | 4.26 µM
O=C(NC1CCCCCCC1)c1cc(COc2ccc3ncccc3c2)on1 | 1.06 µM
Cc1ccc(S(=O)(=O)CC2CSc3nc4ccccc4n32)cc1 (stereo not given) | 0.347 µM
CN(C)c1ccc(/C=C/c2ccc3c4ccccc4ccc3[n+]2-c2ccccc2)cc1 | < 0.26 µM
COc1ccc(C(=O)NC2CCCc3c2cnn3-c2cccc(C)c2C)c(OC)n1 (stereo not given) | 1.96 µM
COc1ccc(CNCC(O)COc2cccc3c2OC(C)(C)C3)cc1 (stereo not given) | 1.68 µM
Cc1ccc(C)c(NC(=O)CN(C)C(=O)c2cccc(S(=O)(=O)N3CCN(Cc4ccccc4)CC3)c2)c1 | 3.5 µM
O=C(Nc1ccncc1)c1ccc(Cl)c(S(=O)(=O)N2CCc3ccccc32)c1 | 3.19 µM
COc1ccc(OC)c(NC(=O)COC(=O)c2c3c(nc4ccccc24)CCCC3)c1 | 8.67 µM
CN1/C(=C/C(=O)c2nc(S(C)(=O)=O)ncc2Cl)C(C)(C)c2ccccc21 | 5.21 µM
C[C@@H]1CN([C@@H](C)CO)C(=O)c2cc(NC(=O)Nc3ccc(F)cc3)ccc2O[C@@H]1CN(C)Cc1ccc(Oc2ccccc2)cc1 | 9.38 µM

SMILES | AC50
O=C(Nc1ccc(S(=O)(=O)N2CCCC2)cc1)c1ccc(CN2CCc3ccccc3C2)cc1 | 0.575 µM
COc1ccc(C(CCNCc2ccc(OC(C)C)cc2)c2ccccc2OC)cc1 (stereo not given) | 6.44 µM
CC1(C)CC2CC(C)(CN2c2ncnc3ccc(Br)cc23)C1 (stereo not given) | 2.11 µM
CCCSc1nnc(CSc2nc3ccccc3s2)n1-c1ccccc1 | 7.05 µM
Cc1cc2nc(C)n(CCCNC(=O)Nc3cccc4ccccc34)c2cc1C | 3.19 µM
O=C(Nc1nc2cc3c(cc2s1)OCCO3)C1=COCCO1 | 2.17 µM
CCC(C)C(NC(=O)CCCNC(=O)CCC(=O)OC1O[C@H]2OC3(C)CC[C@H]4[C@H](C)CCC(C1C)C24OO3)C(=O)O (stereo not given in full) | 1.02 µM
COc1ccc(CNc2ncnc3sccc23)cc1OC | 2.34 µM
CC1=C(C#N)C(C(F)(F)F)(C(F)(F)F)N=C(c2ccco2)N1 | 7.72 µM
CCCCC(=O)NC(c1ccc(C(C)C)cc1)c1ccc2cccnc2c1O (stereo not given) | 0.57 µM
CN(c1ccccc1)S(=O)(=O)c1ccc(NC(=O)c2nc(S(C)(=O)=O)ncc2Cl)cc1 | 0.502 µM
Fc1ccc(NC(=S)N2CCCN(c3ccc(C(F)(F)F)cn3)CC2)c(F)c1 | 3.71 µM
Cc1ccc(-c2csc(N3CCC(NS(=O)(=O)c4ccc5c(c4)OCCO5)CC3)n2)cc1 | 2.15 µM
CCCCCc1nc2c(c(=O)c3ccccc3n2C)c(=O)n1C1CCCCCC1 | 8.21 µM
Cn1c(SCC(=O)N2CCCc3ccccc32)nc2ccccc2c1=O | 3.46 µM
Cc1ccc(C)c(N2CCN(C(=O)CCS(=O)(=O)c3ccc4c(c3)NC(=O)C(C)S4)CC2)c1 (stereo not given) | 4.47 µM
COc1ccc(-c2nsc3c(N4CCCCC4C)ncnc23)cc1 (stereo not given) | < 0.26 µM
CCN(CC)S(=O)(=O)c1ccc(N2CCOCC2)c(NC(=O)c2nn(C(C)C)c(=O)c3ccccc23)c1 | 15.6 µM
COc1ccc(Oc2cc(NC(=O)c3nn(C)cc3[N+](=O)[O-])cc([N+](=O)[O-])c2)cc1 | 0.813 µM
CC(=O)c1cccc(NS(=O)(=O)c2ccc(-c3cnc(C4CC4)o3)cc2)c1 | 5 µM
CCCC(=O)NC(c1ccccc1Cl)c1ccc2cccnc2c1O (stereo not given) | 1.21 µM
O=c1[nH]c2ccccc2n1C1CCN(C(CCc2ccccc2)c2nnnn2Cc2ccccc2)CC1 (stereo not given) | 1.23 µM
COc1ccc(CN2CCC(N(CCc3ccccc3)Cc3ccccc3)CC2)c(OC)c1 | 8.1 µM
CS(=O)(=O)c1ccc(C(=O)OCC(=O)Nc2cccnc2Cl)cc1[N+](=O)[O-] | 9.09 µM
Cc1cc(F)ccc1S(=O)(=O)Nc1ccccc1C(=O)Nc1ccccc1-c1nc2ccccc2[nH]1 | 12.1 µM

SMILES | AC50
C[C@H]1COC(=O)[C@H](NC(=O)OCC2c3ccccc3-c3ccccc32)C/C=C\C[C@H](CC(=O)N(CCO)Cc2ccccc2)C(=O)N1 | 6.08 µM
COC(=O)Oc1ccc(/C=C/C(=O)OC(C)C)cc1OC(=O)OC | 3.29 µM
FC(F)(F)c1nnc(-c2ccccc2)nc1Sc1ccc(Cl)cc1 | 14.7 µM
Cc1ccc(S(=O)(=O)c2ncccc2[N+](=O)[O-])cc1 | 1.91 µM
O=C(/C=C1\C(=O)Nc2ccccc21)/C=C1\C(=O)Nc2ccccc21 | 9.5 µM
CCC(=O)NC(c1ccc(OC)c(OC)c1)c1cc(Cl)c2cccnc2c1O (stereo not given) | < 0.26 µM
CCC(=O)N1CCN(c2ccc(NC(=O)c3ccc([N+](=O)[O-])o3)cc2Cl)CC1 | 0.85 µM
CC[C@@H]1CCC[C@@H](O)[C@@H](C)C(=O)O[C@H](C)[C@@H](C)C/C=C(C)/C(OC)=C\C(=O)N(C)C([C@@H](C)CC)C(=O)N(C)[C@@H](C(C)C)C(=O)N(C)[C@@H](COC)C(=O)N2CCC[C@H]2C(=O)N(C)[C@@H](C(C)C)C(=O)N2CCC[C@H]2C(=O)O1 (stereo not given in full) ([NMeξIle][NMeV][NMeS](Me)P[NMeV]P; linker N-C via X1) | < 0.26 µM
Cc1ccc(Nc2c(-c3ccccn3)nc3cccc(C)n23)cc1 | 1.9 µM
COc1ccc(CC2NCC(O)C2OC(C)=O)cc1 (stereo not given) | < 0.26 µM
O=C(c1ccccc1)C(CN1CCCC1)c1ccccc1 (stereo not given) | 10.7 µM
COc1ccccc1CNc1nc(NCc2ccc(C(C)C)cc2)c2sccc2n1 | 6.81 µM
Cc1nnc(NC(=O)c2nc(S(=O)(=O)Cc3ccccc3)ncc2Cl)s1 | 1.34 µM
O=C(Nc1nc(-c2ccccn2)cs1)c1cccc(S(=O)(=O)N2CCOCC2)c1 | 1.52 µM
CC(=O)NC(c1ccc(Cl)cc1Cl)c1ccc2cccnc2c1O (stereo not given) | 0.465 µM
Cc1ccc(-n2c(Cl)c(Cl)nc(Cl)c2=O)cc1 | 1.77 µM
CCC1CSC(Nc2ccc(C(=O)/C=C/c3ccc(OC)c(OC)c3)cc2)=N1 (stereo not given) | 4.47 µM
CCCCn1c(CN2CCN(c3ccc(F)cc3)CC2)nc2c1c(=O)n(C)c(=O)n2C | 2.73 µM
CCn1c(=O)c(C(=O)Nc2nc3ccccc3[nH]2)c(O)c2ccccc21 | 6.01 µM
Cc1cccc(NC(=O)CSc2nc3ccccc3c(=O)n2C)c1C | 2.98 µM
O=C(Nc1ccc(N2CCN(C(=O)c3ccco3)CC2)c(Cl)c1)c1cc2ccccc2o1 | 5 µM
COc1ccccc1NS(=O)(=O)c1cc(NC(=O)c2ccc(Cl)nc2)ccc1Cl | 3.12 µM
CN(C)CCN1C(=O)c2cccc3cc([N+](=O)[O-])cc(c23)C1=O | 1.11 µM
CCCc1nnc(NC(=O)c2nc(S(=O)(=O)Cc3ccc(C)cc3)ncc2Cl)s1 | 0.538 µM
O=C(c1n[nH]c(=O)c2ccccc12)N1CCN(C2c3ccccc3-c3ccccc32)CC1 | 7.69 µM
